TGI data for nine molecules are collected here from PubChem BioAssay (NCI).

Some test systems named below: OVCAR-8 ovarian; M14 melanoma; COLO 205 colon; SNB-75 CNS; MALME-3M melanoma; HCC-2998 colon; SK-OV-3 ovarian; PC-3 prostate; HOP-92 NSCLC; HOP-62 NSCLC; A549 NSCLC; IGROV1 ovarian; MOLT-4 leukemia; HS 578T breast; OVCAR-3 ovarian; U251 CNS.
Holding throughout (assay): NCI anticancer screen, dose series, 48 h

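Exposure lasted 48 hours, with cells grown in 96-well plates and compounds tested at five concentrations. At the TGI there is no net growth.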 Some results are limits rather than exact numbers.

In the case of `Cc1c(CCOC=O)c(=O)[nH]c2nncn12`, the TGI in the assay on OVCAR-8 ovarian, in the assay on M14 melanoma, in the assay with COLO 205 colon, with SNB-75 CNS, with MALME-3M melanoma and in the assay with HCC-2998 colon was over 100 µM in each case. Further, the TGI with SK-OV-3 ovarian, with PC-3 prostate, with HOP-92 NSCLC, with HOP-62 NSCLC, in the assay on A549 NSCLC and in the assay with IGROV1 ovarian was over 100 µM throughout. Further, the TGI with MOLT-4 leukemia, with HS 578T breast, in the assay with OVCAR-3 ovarian and in the assay on U251 CNS was over 100 µM throughout.
As for `COc1ccc(/C=C2\C[C@H]3[C@@H]4CCC5=C[C@@H](N6CCCC6)CC[C@]5(C)[C@H]4CC[C@]3(C)[C@H]2O)cc1`, the TGI in the assay with OVCAR-8 ovarian turned out to be 16.4 µM; in the assay on M14 melanoma, 2.9 µM; with COLO 205 colon it was 3.54 µM; in the assay on SNB-75 CNS, 14.5 µM; with MALME-3M melanoma it was 5.87 µM; in the assay with HCC-2998 colon, 3.27 µM. Further, the TGI with SK-OV-3 ovarian was 14.8 µM; in the assay on PC-3 prostate, 8.17 µM; in the assay on HOP-92 NSCLC it was 9.51 µM; with HOP-62 NSCLC, 3.74 µM; in the assay with A549 NSCLC, 7.59 µM; with IGROV1 ovarian, 20 µM. Moreover, the TGI in the assay with MOLT-4 leukemia is over 45.4 µM; with HS 578T breast, 8.66 µM; in the assay on OVCAR-3 ovarian it was 8.26 µM; with U251 CNS it was 12.5 µM.
Consider `CC(N)C(C)Cc1ccccc1` (centres undefined), for which the TGI in the assay with OVCAR-8 ovarian, in the assay on M14 melanoma, with COLO 205 colon, with SNB-75 CNS, in the assay on MALME-3M melanoma and in the assay on HCC-2998 colon was over 100 µM in each case. For the same molecule, the TGI in the assay with SK-OV-3 ovarian, with PC-3 prostate, in the assay on HOP-92 NSCLC, in the assay on HOP-62 NSCLC, with A549 NSCLC and with IGROV1 ovarian was over 100 µM in each case. Besides, the TGI in the assay on MOLT-4 leukemia, in the assay with HS 578T breast, with OVCAR-3 ovarian and with U251 CNS was over 100 µM each time.
For the molecule `O=[N+]([O-])c1ccc(C2=NOC(c3ccccc3F)N2C23CC4CC(CC(C4)C2)C3)cc1` (centres undefined), the TGI in the assay on OVCAR-8 ovarian, in the assay with M14 melanoma, in the assay with COLO 205 colon, in the assay on SNB-75 CNS, in the assay on MALME-3M melanoma and with HCC-2998 colon was over 100 µM throughout. Moreover, the TGI in the assay on SK-OV-3 ovarian, in the assay with PC-3 prostate, in the assay with HOP-92 NSCLC, in the assay with HOP-62 NSCLC, in the assay on A549 NSCLC and in the assay with IGROV1 ovarian was over 100 µM throughout. Further, the TGI with MOLT-4 leukemia, with HS 578T breast, in the assay with OVCAR-3 ovarian and in the assay with U251 CNS was over 100 µM throughout.
Regarding `Clc1ccc(Oc2ccc(N=Cc3ccc(Cl)cc3Cl)cc2Cl)cc1`, the TGI was over 100 µM in the assay with OVCAR-8 ovarian; 68 µM in the assay on M14 melanoma; over 100 µM in the assay on COLO 205 colon; 87.4 µM in the assay with SNB-75 CNS; 87.4 µM with MALME-3M melanoma; over 100 µM in the assay on HCC-2998 colon. Besides, the TGI with SK-OV-3 ovarian, in the assay with PC-3 prostate, with HOP-92 NSCLC, in the assay on HOP-62 NSCLC, in the assay with A549 NSCLC and in the assay on IGROV1 ovarian was over 100 µM each time. Further, the TGI with MOLT-4 leukemia is over 100 µM; in the assay on HS 578T breast it was 71.1 µM; with OVCAR-3 ovarian it was over 100 µM; with U251 CNS, 89.3 µM.
Regarding `CN(NC(=O)CCCl)C1=NCCN1`, the TGI in the assay with OVCAR-8 ovarian, in the assay with M14 melanoma, in the assay with COLO 205 colon, with SNB-75 CNS, with MALME-3M melanoma and in the assay with HCC-2998 colon was over 100 µM throughout. Also, the TGI with SK-OV-3 ovarian, in the assay on PC-3 prostate, in the assay with HOP-92 NSCLC, in the assay with HOP-62 NSCLC, in the assay with A549 NSCLC and in the assay with IGROV1 ovarian was over 100 µM throughout. In addition, the TGI in the assay on MOLT-4 leukemia, in the assay with HS 578T breast, with OVCAR-3 ovarian and in the assay on U251 CNS was over 100 µM each time.
Take `CCOC(=O)CCC(NC(=O)c1ccc(Oc2nc3ccc(C(F)(F)F)cc3nc2-c2ccccc2)cc1)C(=O)OCC` (centres undefined): the TGI is over 57.7 µM in the assay with OVCAR-8 ovarian; over 100 µM in the assay with M14 melanoma; over 100 µM in the assay with COLO 205 colon; 29.1 µM in the assay with SNB-75 CNS; 44.9 µM in the assay with MALME-3M melanoma; over 100 µM with HCC-2998 colon. Also, the TGI in the assay on SK-OV-3 ovarian was 37.9 µM; with PC-3 prostate it was over 100 µM; with HOP-92 NSCLC it was 98.4 µM; in the assay on HOP-62 NSCLC, over 89.5 µM; with A549 NSCLC it was over 100 µM; with IGROV1 ovarian it was over 100 µM. The TGI in the assay on MOLT-4 leukemia is over 100 µM; in the assay with HS 578T breast, 9.34 µM; with OVCAR-3 ovarian it was over 100 µM; in the assay on U251 CNS, over 100 µM.
`C[C@H](Nc1c(O)c2c(c(O)c1Cl)C(=O)C=CC2=O)C(=O)Nc1ccc([N+](=O)[O-])cc1`: the TGI with OVCAR-8 ovarian was 5.54 µM; with M14 melanoma, 2.53 µM; with COLO 205 colon, 2.97 µM; with SNB-75 CNS, over 10 µM; with MALME-3M melanoma it was 2.41 µM; in the assay on HCC-2998 colon, 8.05 µM. In addition, the TGI in the assay on SK-OV-3 ovarian is over 10 µM; with PC-3 prostate, 8.89 µM; in the assay with HOP-92 NSCLC, 5.16 µM; in the assay on HOP-62 NSCLC it was 6.74 µM; with A549 NSCLC it was 3.64 µM; in the assay with IGROV1 ovarian, 4.22 µM. For the same molecule, the TGI is over 10 µM in the assay with MOLT-4 leukemia, over 10 µM in the assay with HS 578T breast, 2.75 µM with OVCAR-3 ovarian and 6.02 µM with U251 CNS.
For the molecule `CC(C)NC(=O)CN1CCN(C2=CC(=O)c3c(O)ccc(O)c3C2=O)CC1`, the TGI in the assay on OVCAR-8 ovarian was over 54 µM; in the assay with M14 melanoma it was 22.3 µM; in the assay with COLO 205 colon, 9.64 µM; in the assay with SNB-75 CNS, 32.6 µM; with MALME-3M melanoma it was 4.41 µM; with HCC-2998 colon it was 30.4 µM. In addition, the TGI with SK-OV-3 ovarian is 77.1 µM; in the assay on PC-3 prostate it was over 80.5 µM; with HOP-92 NSCLC it was 38.3 µM; with HOP-62 NSCLC, 32.3 µM; in the assay with A549 NSCLC, 35.2 µM; with IGROV1 ovarian, 28.4 µM. Also, the TGI in the assay on MOLT-4 leukemia is over 100 µM; in the assay on HS 578T breast, 62.5 µM; in the assay on OVCAR-3 ovarian it was 6.56 µM; in the assay on U251 CNS it was 35.9 µM.
